Test results taken from patent publication US8828678B2, “Self-immolative probes for enzyme activity detection” (Enzo Life Sciences, Inc., priority 2010, dated 2014).

Experiments:
Jurkat cells = assay: Detection of hypoxia using flow cytometry; type: cell-based, human; conditions: 5 μM CD-1, 1 μM CD-6, versus vehicle-treated loaded cells
Description: HeLa and U-2 OS cells were cultured as described in Example 7. Human Jurkat T-cell leukemia cells (the A3 subclone) was obtained from ATCC and routinely cultured in RPMI-1640 medium (ATCC) supplemented with 10% fetal bovine serum (ATCC) and 100 U/ml penicillin+100 μg/ml streptomycin (Sigma-Aldrich). Cell cultures were maintained in an incubator at 37° C., with 5% CO2 atmosphere. CD-1, CD-4 and CD-6 self-immolative hypoxia probes were prepared as described in Example 8. All hypoxia inducers stocks were prepared as described in Example 7.
The day before the experiment, HeLa and U-2 OS cells were seeded in 6-well tissue culture plates at a density 5×10^5 cells/well. […] Post-treatment, the adherent cells (HeLa and U-2 OS) were collected by trypsinization, re-suspended in 0.5 mL of fresh PBS and analyzed using flow cytometry. Jurkat cells were analyzed without washing.
Flow cytometry experiments were performed using a FACS Calibur benchtop flow cytometer (BD Biosciences) equipped with a blue (488 nm) laser, and the fluorescence was recorded in the FITC (530/30 filter), PE (585/42 filter) and PerCP (670 LP filter) channels. Hypoxic cells were detected by detecting increases in fluorescence. The degree of hypoxia (Khyp) can be quantified by using Kolmogorov-Smirnov statistics (Young, 1977) or the following formula: Khyp=(MFIhyp−MFIcon)/MFIhyp, […]

hypoxic HeLa cells = assay: Detection of hypoxia with hypoxia markers using fluorescence microscopy; type: cell-based, human; conditions: 5 μM, 3.5 h, chemical induction of hypoxia (CoCl2, DFO, DMOG) or anoxic treatment, FITC filter
Description: The human cervical adenocarcinoma epithelial cell line HeLa, U-2 OS human bone osteosarcoma cell line and hamster ovary CHO K1 cell line were obtained from ATTC. HeLa cells were routinely cultured in Eagle's Minimum Essential Medium with low glucose (ATCC), supplemented with 10% fetal bovine serum (ATCC) and 100 U/ml penicillin, 100 μg/ml streptomycin (Sigma-Aldrich, St. Louis, Mo.). U-2 OS cells were routinely cultured in McCoy's 5a Modified Medium (ATCC), supplemented with 10% fetal bovine serum heat (ATCC) and 100 U/ml penicillin+100 μg/ml streptomycin (Sigma-Aldrich). […]
The day before the experiment, the cells were seeded on 4-well microscope slides (Cel-Line™ Brand, Portsmouth, N.H.) at a density 1×10^4 cells/well (2×10^4 cells/cm^2). […] Post-treatment, the slides were washed twice with PBS, coverslipped and visualized using an Olympus BX-51 fluorescence microscope (FITC filter set, 490ex/525em).
In parallel, the hypoxia cellular state was detected using the hypoxia detecting reagent pimonidazole (Varia et al., 1998; Young, 1977). […] Slides were stained with a 1:100 dilution of FITC-MAb1 against pimonidazole (HP-1 kit from Hypoxyprobe) for 45 min at 4° C., washed twice with PBS, coverslipped and visualized using an Olympus BX-51 fluorescence microscope equipped with an FITC filter set (490ex/525em). […]

O=C(Nc1ccc2c(c1)Oc1cc(NC(=O)N3CCOCC3)ccc1C21OC(=O)c2ccccc21)OCc1ccc([N+](=O)[O-])cc1 (centres unmarked) [CD-1]
fluorescence in Jurkat cells treated with chemical hypoxia inducers or subjected to anoxia (Jurkat cells): fluorescence increase | fluorescence signal in hypoxic HeLa cells (hypoxic HeLa cells): bright fluorescence signal
